Test results: patent US20100184189A1, “PROTEIN FOR THE CHEMOENZYMATIC PRODUCTION OF L-THREO-HYDROXYASPARTATE” (priority 2007, published 2010)

B1: wild type AsnO (Streptomyces coelicolor A3(2)) (protein)
chain: MAANAAGPASRYDVTLDQSDAELVEEIAWKLATQATGRPDDAEWVEAARNAWHAWPATLRRDLAGFRRDSGPDGAIVLRGLPVDSMGLPPTPRVNGSVQREASLGAAVLLMTACGLGDPGAFLPEKNGALVQDVVPVPGMEEFQGNAGSTLLTFHNENAFHEHRPDFVMLLCLRADPTGRAGLRTACVRRVLPLLSDSTVDALWAPEFRTAPPPSFQLSGPEEAPAPVLLGDRSDPDLRVDLAATEPVTERAAEALRELQAHFDATAVTHRLLPGELAIVDNRVTVHGRTEFTPRYDGTDRWLQRTFVLTDLRRSRAMRPADGYVLGAAPQPA

Experiments:
glutamate transporters = details: literature statement; cited from earlier work
AsnO D241N [1] = biological target: T1, AsnO D241N (Streptomyces coelicolor, UniProt Q9Z4Z5, D241N/M1S); assay: Substrate specificity of the mutated protein AsnO D241N, HPLC/MS; format: biochemical; parameters: made in house; host or cells: E. coli BL21 (DE3), pQTEV vector; details: amino acid 1.5 mM, 16 h at 16° C., (NH4)2Fe(SO4)2 1 mM, α-ketoglutarate 4 mM, catalase, HEPES pH 7.5
Protocol: The specificity of AsnO D241N for the conversion of L-Asp in L-threo-3-hydroxyaspartate is examined by incubating this mutated protein during 16 h at 16° C. with the amino acids (1.5 mM) listed in Table 1, the cofactor (NH4)2Fe(SO4)2 (1 mM), the cosubstrate α-ketoglutarate (4 mM) and 20 μg catalase in […] of a 50 mM HEPES buffer (pH 7.5). The catalase is added in order to quench reactive oxygen species and to prevent hereby the autoxidation of the enzyme. Controls are carried out in the absence of AsnO D241N.
The reaction is stopped by the addition of 50-200 μL of a 4% solution (V/V) of nonafluoropentane acid and subsequently the hydroxylation of the amino acid substrate to the respectively corresponding hydroxy amino acid is examined by means of reversed phase HPLC/MS. Column: Hypercarb (Thermo Electron Corporation, pore diameters of 250 Å, particle size of 5 μM, 100% carbon). Mobile phases: A=20 mM aqueous nonafluoropentane acid, B=acetonitrile. Gradient: 0-10% B in 12 min, flow rate 0.2 mL/min at 17.5° C.
The reaction product of the incubation of the respective amino acid with AsnO D241N is carried out by means of highest resolution MS with an API Qstar Pulsar I (Applied Biosystems).

AsnO D241N [2] = biological target: T1, AsnO D241N; details: AsnO D241N 40 μM, substrate L-Asp 50 μM to 2 mM
Protocol: For the evaluation of the kinetic parameters at different concentrations of the substrate L-Asp (50 μM to 2 mM), the latter was incubated as described under practical embodiment 3 with AsnO D241N (40 μM), 1.0 mM (NH4)2Fe(SO4)2 as source of the iron cofactor and 1.0 mM α-ketoglutarate (cosubstrate) and the enzyme assay was stopped at different points in time by adding nonafluoropentane acid.
The kinetic parameters of AsnO D241N are subsequently determined by means of a Lineweaver-Burk equation (FIG. 4b).

AsnO D241N [3] = biological target: T1, AsnO D241N; assay: Activity of the AsnO D241N mutant: conversion of L-Asp, HPLC MS; format: biochemical; parameters: made in house; host or cells: E. coli BL21 (DE3), pQTEV vector; details: AsnO D241N 40 μM, 1.5 mM L-Asp, 1.0 mM (NH4)2Fe(SO4)2, 1.0 mM α-ketoglutarate, 16 h, 16° C.
Protocol: In order to evaluate the activity of the AsnO D241N mutant, the purified enzyme
The reaction is monitored by means of HPLC MS, by scanning the masses for L-Asp ([M+H]^+=[…]) and its hydroxylated form ([M+H]^+=150.04 Da). […] (FIG. 3a). In the control reaction, in which no enzyme is added, only L-Asp can be detected (FIG. 3b). Commercially available L-Asp (Bachem) as well as L-threo-3-hydroxyaspartate (Tocris Bioscience) are used as standards for the comparison of the retention times with HPLC.
Column: Hypercarb (Thermo Electron Corporation, pore diameters of 250 Å, particle size of 5 μM, 100% carbon). Mobile phases: A=20 mM aqueous nonafluoropentane acid, B=acetonitrile Gradient: 0-10% B in 12 min, flow rate 0.2 mL 1 min at 17.5° C. • FIG. 3a: negative control, no addition of enzyme (=AsnO D241N) • Only L-Asp is detected. • Retention time: 3.72 min; • Mber=134.045, Mgef=134.048 • FIG. 3b: incubation of L-Asp with AsnO D241N • After 16 h of incubation at 16° C. only • L-threo-3-hydroxyaspartate is detected. • Retention time 3.39 min; • Mber=150.040, Mgef=150.042

wild type AsnO = assay: Kinetic parameters of the wild type AsnO for L-Asn (comparison); format: biochemical, Streptomyces coelicolor; details: wild type AsnO with L-Asn versus AsnO D241N with L-Asp
[4] = substrate: NC(=O)C[C@H](N)C(=O)O; assay: as above; format: biochemical, Streptomyces coelicolor; details: other: wild type AsnO, substrate L-Asn

T1 sequence (Q9Z4Z5 other isoform, or with tags, fused parts or gaps D241N): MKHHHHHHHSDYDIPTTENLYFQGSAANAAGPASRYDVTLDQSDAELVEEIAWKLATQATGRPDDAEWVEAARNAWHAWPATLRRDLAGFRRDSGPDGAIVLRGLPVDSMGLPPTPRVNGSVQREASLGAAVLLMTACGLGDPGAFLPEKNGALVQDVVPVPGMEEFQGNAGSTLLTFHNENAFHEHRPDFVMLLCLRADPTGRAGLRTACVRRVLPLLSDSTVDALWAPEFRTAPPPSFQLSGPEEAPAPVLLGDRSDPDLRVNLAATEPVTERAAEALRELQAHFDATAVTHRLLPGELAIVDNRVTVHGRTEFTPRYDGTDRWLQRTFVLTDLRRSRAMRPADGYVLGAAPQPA

Row | Molecule | hydroxylation (AsnO D241N [1]) | also measured
1 | N[C@H](C(=O)O)[C@H](O)C(=O)O [L-threo-hydroxaspartate, L-threo-hydroxyaspartate] | – | inhibition of the function of the glutamate transporters (glutamate transporters): inhibits the function of the glutamate transporters
2 | N[C@@H](Cc1c[nH]c2ccccc12)C(=O)O [L-Trp] | no | –
3 | N[C@H](CC(=O)O)C(=O)O [D-Asp] | no | –
4 | N[C@@H](CC(=O)O)C(=O)O [L-Asp, L-aspartate] | yes | Km (AsnO D241N [2]): 457 ± 31 µM; kcat (AsnO D241N [2]): 0.0167 ± 0.0017 s⁻¹; conversion of L-aspartate to L-threo-3-hydroxyaspartate (AsnO D241N [3]): Quantitative conversion; conversion of L-aspartate to L-threo-3-hydroxyaspartate (AsnO D241N [3]; listed as L-aspartate): quantitative conversion
5 | NC(C(=O)O)C(OCc1ccccc1)C(=O)O [L-TBOA] | – | inhibition of the function of the glutamate transporters (glutamate transporters): also comprises this inhibitor effect
6 | N[C@@H](Cc1ccccc1)C(=O)O [L-Phe] | no | –
7 | N[C@@H](CCC(=O)O)C(=O)O [L-Glu, L-glutamate] | no | –
8 | CC(C)[C@H](N)C(=O)O [L-Val] | no | –
9 | NC(=O)CC[C@H](N)C(=O)O [L-Gln] | no | –
10 | NC(=O)C[C@H](N)C(=O)O [L-Asn, L-asparagine] | no | kcat of wild type AsnO relative to AsnO D241N (wild type AsnO): 300 times
11 | CC[C@H](C)[C@H](N)C(=O)O [L-Ile] | no | –
12 | B1 | – | Km [4]: 478 ± 67 µM; kcat [4]: 4.97 ± 0.317 s⁻¹
